“And” between values parts separate entries of the source, which are not always exact repeats. Identical values can stand only once.
Assay: Pharmacokinetics in mice, plasma by UPLC-MS/MS
Format: in vivo, female CD1 mice
Conditions: for Concentration ENDX PROTAC 7: mouse plasma
Description: ENDX PROTAC 7 and PROTAC 9 pharmacokinetics were characterized in female CD1 mice. Blood samples were collected from mice anesthetized under isoflurane via retro-orbital eye bleed into tubes containing EDTA and immediately chilled on ice. NaF was added to the EDTA collection tubes to help stabilize the drug in whole blood for the second IV and IP studies with ENDX PROTAC 9, and for the IV and oral studies with PROTAC 7. Plasma and red blood cells were separated immediately by centrifugation in a refrigerated centrifuge at 4° C. The plasma was transferred to a separate tube and immediately frozen at −20° C.
For IV dosing, ENDX PROTAC 9 was dissolved in 10% DMSO, 10% PEG 400, and 80% normal saline for a final concentration of 0.2 mg/mL ENDX PROTAC 9 for the 1 mg/kg IV doses. ENDX PROAC 7 was dissolved in 15% DMSO, 9.44% PEG400, and […] normal saline for a final concentration of 0.19 mg/mL for the 1 mg/kg IV doses. Blood samples (3 mice per time-point) were collected 5 minutes, 15 minutes, 0.5 hour, 1 hour, 2 hours, 4 hours, 8 hours, and 24 hours after administration of the ENDX PROTAC. A second IV study was performed for ENDX PROTAC 9 in which blood samples (3 mice per time-point) were collected 5 minutes, 15 minutes, 1 hour, and 2 hours after administration of ENDX PROTAC 9. For oral dosing, ENDX PROTAC 9 (10 mg/kg) and ENDX PROTAC 7 (10 mg/kg) were suspended in 1 mM ascorbic acid:PEG400, 1:1 v/v for a final concentration of 1.0 mg/mL ENDX PROTAC. Blood samples (three mice per time-point) were collected 15 minutes, 0.5 hour, 1 hour, 2 hours, 4 hours, 6 hours, 8 hours, and 24 hours after administering the ENDX PROTAC. For LP. dosing, ENDX PROTAC 9 (4 mg/kg) was prepared in 1 mM ascorbic acid:PEG400, 1:1 v/v for a final concentration of 0.4 mg/mL ENDX PROTAC 9. Blood samples (three mice per time-point) were collected 15 minutes, 0.5 hour, 1 hour, 2 hours, 4 hours, 6 hours, 8 hours, and 24 hours after administration. Plasma concentrations of ENDX PROTAC 7 and 9 were measured using UPLC-MS/MS.

[1] = mice, oral 10 mg/kg, NaF in tubes

Question: With `CC/C(=C(\c1ccc(O)cc1)c1ccc(OCCN(C)C(=O)COCCNC(=O)Cc2ccc3c(c2)CN(C2CCC(=O)NC2=O)C3=O)cc1)c1ccccc1` (stereo not shown) [TC-Pr-007] as the compound, how does the “Concentration ENDX PROTAC 7” value (IV (1 mg/kg), 15 minutes, listed as ENDX PROTAC 7, 1 mg/kg) read?
Answer: 37.27 ng/mL and 57.95 ng/mL and 30.96 ng/mL

Question: And the “Concentration ENDX PROTAC 7” value (IV (1 mg/kg), 30 minutes, listed as ENDX PROTAC 7, 1 mg/kg)?
Answer: 10.89 ng/mL and 19.85 ng/mL and 16.62 ng/mL

Question: And the “Concentration ENDX PROTAC 7” value (IV (1 mg/kg), 120 minutes, listed as ENDX PROTAC 7, 1 mg/kg)?
Answer: 8.35 ng/mL and 9.53 ng/mL and 8.69 ng/mL

Question: What about the “Concentration ENDX PROTAC 7” value (PO (10 mg/kg), 15 minutes, listed as ENDX PROTAC 7, 10 mg/kg) of the same compound?
Answer: 0.75 ng/mL and 0.7 ng/mL and 0.93 ng/mL

Question: And the “Concentration ENDX PROTAC 7” value (PO (10 mg/kg), 30 minutes, listed as ENDX PROTAC 7, 10 mg/kg)?
Answer: 0.64 ng/mL and 0.81 ng/mL and 0.83 ng/mL

Question: What about the “Concentration ENDX PROTAC 7” value (PO (10 mg/kg), 360 minutes, listed as ENDX PROTAC 7, 10 mg/kg) of the same compound?
Answer: 0.53 ng/mL and 0.4 ng/mL and 0.44 ng/mL

Question: And the “Concentration ENDX PROTAC 7” value (PO (10 mg/kg), 480 minutes, listed as ENDX PROTAC 7, 10 mg/kg)?
Answer: 0.69 ng/mL and 0.37 ng/mL and 0.4 ng/mL

Question: And the elimination half-life (mice, I.V. 1 mg/kg, NaF in tubes)?
Answer: 5 h

Question: What about the peak plasma concentration (mice, IV 1 mg/kg, NaF in tubes) of the same compound?
Answer: 129.7 ng/mL

Question: What about the “time of peak plasma concentration” value (mice, IV 1 mg/kg, NaF in tubes) of the same compound?
Answer: ≤ 5 min

Question: What about the Oral bioavailability (mice, oral 10 mg/kg vs IV 1 mg/kg, NaF in tubes) of the same compound?
Answer: 0.85%

Question: And the peak plasma concentration [1]?
Answer: 1.24 ng/mL

Question: What about the “time of peak plasma concentration” value [1] of the same compound?
Answer: ≤ 60 min
